From patent US20230416248A1, “COMPOUNDS AND USES THEREOF” (Foghorn Therapeutics Inc., priority 2020, published 2023)
pIC50: −log10 of the molar value.

Experiments:
[1] = target: T1, BRM (Homo sapiens, UniProt P51531); assay: ATPase catalytic activity of BRM, ADP-Glo in vitro biochemical assay; conditions: for pIC50: ADP-Glo ATPase assay, 30 nM BRM, 400 μM ATP; for Ratio* (BRG1 IC50 (μM) divided by BRM IC50 (μM)): selectivity ratio BRG1 IC50 / BRM IC50
T1 construct: made in house; host or cells: High Five insect cells
Procedure, shortened: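 ADP-Glo luminescence, after depletion of leftover ATP and conversion of ADP, reported the activity. The 1 h room-temperature reaction held 400 μM ATP, 20 nM salmon sperm DNA and 30 nM BRM in 20 mM Tris pH 8, 20 mM MgCl2, 50 mM NaCl, 0.1% Tween-20, 1 mM DTT.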

[2] = target: T2, BRG-1 (Homo sapiens, UniProt P51532); assay: ATPase catalytic activity of BRG-1, ADP-Glo in vitro biochemical assay; conditions: ADP-Glo ATPase assay, 30 nM BRG-1, 400 μM ATP; read-out: BRG1 IC50
T2 construct: made in house; host or cells: High Five insect cells
Procedure, shortened: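 Luminescence read-out: ADP formed by BRG-1 ATPase is converted to ATP and detected by luciferase. Residual ATP is first removed with ADP-Glo Reagent for 40 min at RT; detection reagent is then incubated 60 min at RT before reading.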

T2 sequence (P51532 whole entry): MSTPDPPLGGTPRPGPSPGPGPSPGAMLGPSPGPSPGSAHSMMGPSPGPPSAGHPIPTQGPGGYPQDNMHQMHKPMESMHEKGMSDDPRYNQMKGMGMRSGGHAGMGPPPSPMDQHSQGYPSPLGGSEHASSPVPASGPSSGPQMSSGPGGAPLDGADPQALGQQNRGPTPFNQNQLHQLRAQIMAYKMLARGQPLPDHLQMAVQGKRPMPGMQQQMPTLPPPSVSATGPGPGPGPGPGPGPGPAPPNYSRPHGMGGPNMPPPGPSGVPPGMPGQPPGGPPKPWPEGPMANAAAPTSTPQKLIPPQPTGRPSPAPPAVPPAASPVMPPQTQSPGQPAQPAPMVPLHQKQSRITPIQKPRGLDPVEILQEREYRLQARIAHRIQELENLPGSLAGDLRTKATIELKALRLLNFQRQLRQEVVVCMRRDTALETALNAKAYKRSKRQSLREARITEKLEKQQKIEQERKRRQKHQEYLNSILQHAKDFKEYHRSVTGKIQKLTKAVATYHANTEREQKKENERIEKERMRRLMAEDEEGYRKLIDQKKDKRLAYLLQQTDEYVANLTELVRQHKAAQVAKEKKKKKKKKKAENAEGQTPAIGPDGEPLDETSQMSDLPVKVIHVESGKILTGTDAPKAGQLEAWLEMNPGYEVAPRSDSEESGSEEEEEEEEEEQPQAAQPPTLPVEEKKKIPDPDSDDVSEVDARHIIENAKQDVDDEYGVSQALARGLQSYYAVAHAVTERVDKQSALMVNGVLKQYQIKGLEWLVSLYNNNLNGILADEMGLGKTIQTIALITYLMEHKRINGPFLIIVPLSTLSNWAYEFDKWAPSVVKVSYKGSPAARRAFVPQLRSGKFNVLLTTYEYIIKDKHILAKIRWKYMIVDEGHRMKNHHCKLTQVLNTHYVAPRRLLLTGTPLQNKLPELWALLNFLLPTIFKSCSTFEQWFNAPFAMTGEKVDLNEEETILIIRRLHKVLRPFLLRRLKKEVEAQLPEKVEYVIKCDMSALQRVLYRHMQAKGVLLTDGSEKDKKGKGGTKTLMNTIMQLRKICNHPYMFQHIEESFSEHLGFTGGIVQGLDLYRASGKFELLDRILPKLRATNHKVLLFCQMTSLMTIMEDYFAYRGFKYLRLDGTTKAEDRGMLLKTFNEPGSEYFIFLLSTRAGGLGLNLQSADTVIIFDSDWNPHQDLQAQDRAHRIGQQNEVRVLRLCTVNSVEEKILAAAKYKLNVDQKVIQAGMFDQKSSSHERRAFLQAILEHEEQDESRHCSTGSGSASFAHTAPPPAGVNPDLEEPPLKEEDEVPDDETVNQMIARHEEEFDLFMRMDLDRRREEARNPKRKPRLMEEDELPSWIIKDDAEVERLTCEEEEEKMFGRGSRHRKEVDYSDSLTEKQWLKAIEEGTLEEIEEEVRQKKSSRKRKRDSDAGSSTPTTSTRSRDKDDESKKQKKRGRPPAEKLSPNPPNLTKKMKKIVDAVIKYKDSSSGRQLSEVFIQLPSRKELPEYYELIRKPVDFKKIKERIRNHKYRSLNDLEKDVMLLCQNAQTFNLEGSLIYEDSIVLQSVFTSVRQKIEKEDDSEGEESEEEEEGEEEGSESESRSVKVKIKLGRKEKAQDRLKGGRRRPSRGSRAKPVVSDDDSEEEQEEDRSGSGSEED
T1 sequence (P51531 whole entry): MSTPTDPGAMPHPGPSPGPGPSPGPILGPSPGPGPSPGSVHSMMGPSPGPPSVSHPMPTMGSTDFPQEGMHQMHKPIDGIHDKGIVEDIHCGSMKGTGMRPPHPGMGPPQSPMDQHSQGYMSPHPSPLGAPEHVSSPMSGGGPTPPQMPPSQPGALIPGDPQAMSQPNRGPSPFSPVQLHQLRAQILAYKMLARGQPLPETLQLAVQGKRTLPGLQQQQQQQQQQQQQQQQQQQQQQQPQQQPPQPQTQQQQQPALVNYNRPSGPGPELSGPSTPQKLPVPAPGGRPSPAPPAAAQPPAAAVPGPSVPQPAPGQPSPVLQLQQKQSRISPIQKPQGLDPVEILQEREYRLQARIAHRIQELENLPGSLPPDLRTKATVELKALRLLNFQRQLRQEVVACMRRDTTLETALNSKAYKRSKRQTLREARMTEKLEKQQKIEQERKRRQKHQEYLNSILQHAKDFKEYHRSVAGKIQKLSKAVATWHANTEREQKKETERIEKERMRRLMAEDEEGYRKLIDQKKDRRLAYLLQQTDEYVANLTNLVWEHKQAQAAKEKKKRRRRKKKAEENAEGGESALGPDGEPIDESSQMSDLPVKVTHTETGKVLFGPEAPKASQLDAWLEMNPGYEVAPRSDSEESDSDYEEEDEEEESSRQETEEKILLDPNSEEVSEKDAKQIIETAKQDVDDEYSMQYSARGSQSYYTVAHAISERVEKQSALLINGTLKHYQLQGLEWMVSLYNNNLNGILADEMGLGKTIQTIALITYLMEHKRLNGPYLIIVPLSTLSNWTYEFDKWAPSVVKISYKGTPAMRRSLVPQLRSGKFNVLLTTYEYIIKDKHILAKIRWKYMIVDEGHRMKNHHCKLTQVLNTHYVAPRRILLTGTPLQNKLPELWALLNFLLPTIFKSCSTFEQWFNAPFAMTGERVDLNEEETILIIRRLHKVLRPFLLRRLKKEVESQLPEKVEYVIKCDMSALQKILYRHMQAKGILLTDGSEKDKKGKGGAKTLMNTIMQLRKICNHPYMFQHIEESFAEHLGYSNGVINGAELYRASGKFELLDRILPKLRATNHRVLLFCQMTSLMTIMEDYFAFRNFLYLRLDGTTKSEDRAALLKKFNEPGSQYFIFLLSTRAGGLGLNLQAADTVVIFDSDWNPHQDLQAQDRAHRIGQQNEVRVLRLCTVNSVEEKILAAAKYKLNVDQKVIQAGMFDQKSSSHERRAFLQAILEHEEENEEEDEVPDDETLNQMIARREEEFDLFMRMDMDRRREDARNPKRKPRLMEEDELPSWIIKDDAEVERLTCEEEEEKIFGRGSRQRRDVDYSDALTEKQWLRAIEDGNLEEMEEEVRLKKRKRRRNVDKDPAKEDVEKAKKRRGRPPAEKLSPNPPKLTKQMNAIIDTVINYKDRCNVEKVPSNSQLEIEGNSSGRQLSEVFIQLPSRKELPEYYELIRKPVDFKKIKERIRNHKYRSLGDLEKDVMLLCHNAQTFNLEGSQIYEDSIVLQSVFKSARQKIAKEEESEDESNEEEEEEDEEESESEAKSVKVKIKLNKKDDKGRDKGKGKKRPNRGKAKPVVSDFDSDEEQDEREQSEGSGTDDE

Structure (SMILES) | pIC50 [1] | Ratio* (BRG1 IC50 (μM) divided by BRM IC50 (μM)) [1] | pIC50 [2]
C[C@@H]1CN(c2cccc(-c3ccc4cnc(CNC(=O)c5ccc6c(c5)S(=O)(=O)[C@@H](C)COC6)cc4n3)n2)C[C@H](C)O1 [Compound 155] | 8.35 | 5.59 | 7.60
O=C(NCc1cc2nc(N3CCCc4ncccc43)ccc2cn1)c1ccc2c(c1)S(=O)(=O)CCOC2 [Compound 156] | 6.44 | 5.25 | 5.72
C[C@@H]1CN(c2nccc(-c3ccc4cnc(CNC(=O)c5ccc(C(F)F)c(S(C)(=O)=O)c5)cc4n3)n2)C[C@H](C)O1 [Compound 157] | 7.84 | 21.99 | 6.50
C[C@@H]1CN(c2cccc(-c3ccc4cnc(CNC(=O)c5ccc(C(F)F)c(S(C)(=O)=O)c5)cc4n3)n2)C[C@@H](C)O1 [Compound 158] | 7.88 | 20.03 | 6.58
C[C@@H]1CN(c2cccc(-c3ccc4cnc(CNC(=O)c5ccc6c(c5)S(=O)(=O)[C@H](C)COC6)cc4n3)n2)C[C@H](C)O1 [Compound 159] | 7.44 | 11.15 | 6.39
C[C@@H]1CN(c2cccc(-c3ccc4nnc(CNC(=O)c5ccc6c(c5)S(=O)(=O)CCOC6)cc4c3)n2)C[C@H](C)O1 [Compound 160] | 8.52 | 4.54 | 7.87
C[C@@H]1CN(c2cccc(-c3cnc4cnc(CNC(=O)c5ccc6c(c5)S(=O)(=O)CCOC6)cc4c3)n2)C[C@H](C)O1 [Compound 161] | 8.33 | 9.62 | 7.34
C[C@H]1CN(c2cccc(-c3ccc4cnc(CNC(=O)c5ccc(C(F)F)c(S(C)(=O)=O)c5)cc4n3)n2)C[C@H](C)O1 [Compound 162] | 7.42 | 14.67 | 6.25
C[C@@H]1CN(c2cncc(-c3ccc4cnc(CNC(=O)c5ccc(C(F)F)c(S(C)(=O)=O)c5)cc4n3)n2)C[C@H](C)O1 [Compound 163] | 7.68 | 12.71 | 6.58
CS(=O)(=O)c1cc(C(=O)NCc2cc3nc(-c4cncc(C5CC5)n4)ccc3cn2)ccc1CC(F)F [Compound 164] | 6.96 | 12.80 | 5.85
CC(C)Oc1cccc(-c2ccc3cnc(CNC(=O)c4ccc5c(c4)S(=O)(=O)CCOC5)cc3n2)n1 [Compound 165] | 6.94 | 18.39 | 5.67
C[C@@H]1CN(c2ccc(F)c(-c3ccc4cnc(CNC(=O)c5ccc6c(c5)S(=O)(=O)CCOC6)cc4n3)n2)C[C@H](C)O1 [Compound 166] | 7.77 | 12.29 | 6.69
O=C(NCc1cc2nc(-c3cccc(OCC(F)F)n3)ccc2cn1)c1ccc2c(c1)S(=O)(=O)CCOC2 [Compound 167] | 7.23 | 13.95 | 6.08
COC1CCOc2c(-c3ccc4cnc(CNC(=O)c5ccc6c(c5)S(=O)(=O)CCOC6)cc4n3)cccc21 (stereo not drawn) [Compound 168] | 7.03 | 9.35 | 6.06
Cc1cc(-c2cccc(-c3ccc4cnc(CNC(=O)c5ccc6c(c5)S(=O)(=O)CCOC6)cc4n3)n2)cc(C)n1 [Compound 169] | 8.52 | 3.33 | 8.00
O=C(NCc1cc2nc(-c3cccc(C4(F)CC(F)(F)C4)n3)ccc2cn1)c1ccc2c(c1)S(=O)(=O)CCOC2 [Compound 170] | 6.96 | 6.33 | 6.16
O=C(NCc1cc2nc(-c3cccc(C4CC(F)(F)C4)n3)ccc2cn1)c1ccc2c(c1)S(=O)(=O)CCOC2 [Compound 171] | 7.28 | 9.52 | 6.30
COCCN1CCOc2c(-c3ccc4cnc(CNC(=O)c5ccc6c(c5)S(=O)(=O)CCOC6)cc4n3)cccc21 [Compound 172] | 8.04 | 11.42 | 6.98
C[C@@H]1[C@@H](c2cccc(-c3ccc4cnc(CNC(=O)c5ccc6c(c5)S(=O)(=O)CCOC6)cc4n3)n2)C1(F)F [Compound 173] | 6.97 | 13.78 | 5.83
CN(c1cccc(-c2ccc3cnc(CNC(=O)c4ccc5c(c4)S(=O)(=O)CCOC5)cc3n2)n1)C1CCOCC1 [Compound 174] | 7.54 | 9.24 | 6.58
CN1CCc2nc(-c3ccc4cnc(CNC(=O)c5ccc6c(c5)S(=O)(=O)CCOC6)cc4n3)ccc21 [Compound 176] | 6.36 | 4.10 | 5.75

Structure (SMILES) | pIC50 [1] | Ratio* (BRG1 IC50 (μM) divided by BRM IC50 (μM)) [1] | pIC50 [2]
C[C@@H]1CN(c2cccc(-c3ccc4cnc(CNC(=O)c5ccc(Cl)c(S(C)(=O)=O)c5)cc4n3)n2)C[C@@H](C)O1 [Compound 177] | 7.80 | 14.02 | 6.65
C[C@H]1COCCN1c1cccc(-c2ccc3cnc(CNC(=O)c4ccc5c(c4)S(=O)(=O)CCOC5)cc3n2)n1 [Compound 178] | 6.74 | 7.72 | 5.86
C[C@H]1CN(c2cccc(-c3ccc4cnc(CNC(=O)c5ccc(Cl)c(S(C)(=O)=O)c5)cc4n3)n2)C[C@H](C)O1 [Compound 179] | 7.48 | 11.49 | 6.42
C[C@@H]1CN(c2nccc(-c3ccc4cnc(CNC(=O)c5ccc(Cl)c(S(C)(=O)=O)c5)cc4n3)n2)C[C@H](C)O1 [Compound 180] | 7.75 | 15.48 | 6.57
C[C@@H]1COCCN1c1cccc(-c2ccc3cnc(CNC(=O)c4ccc5c(c4)S(=O)(=O)CCOC5)cc3n2)n1 [Compound 181] | 7.39 | 9.06 | 6.43
C[C@@H]1CN(c2cncc(-c3ccc4cnc(CNC(=O)c5ccc(Cl)c(S(C)(=O)=O)c5)cc4n3)n2)C[C@H](C)O1 [Compound 182] | 7.35 | 9.47 | 6.37
O=C(NCc1cc2nc(-c3cccc(C4=CCOCC4)n3)ccc2cn1)c1ccc2c(c1)S(=O)(=O)CCOC2 [Compound 183] | 8.05 | 11.33 | 6.99
O=C(NCc1cc2nc(-c3cccc(N4CCC(F)(F)CC4)n3)ccc2cn1)c1ccc2c(c1)S(=O)(=O)CCOC2 [Compound 184] | 7.09 | 9.55 | 6.11
CC(=O)N1CCOc2c(-c3ccc4cnc(CNC(=O)c5ccc6c(c5)S(=O)(=O)CCOC6)cc4n3)cccc21 [Compound 185] | 6.45 | 3.75 | 5.87
O=C(NCc1cc2nc(-c3cccc(N4CCC(F)CC4)n3)ccc2cn1)c1ccc2c(c1)S(=O)(=O)CCOC2 [Compound 186] | 7.66 | 11.50 | 6.60
O=C(NCc1cc2nc(-c3cncc(C4CC4)n3)ccc2cn1)c1cc(Cl)c2c(c1)S(=O)(=O)CCOC2 [Compound 187] | 6.96 | 24.40 | 5.57
O=C1CS(=O)(=O)c2cc(C(=O)NCc3cc4nc(-c5cccc(C6CC6)c5)ccc4cn3)ccc2CN1 [Compound 188] | 6.54 | 17.42 | 5.30
CN1CCc2ccc(-c3ccc4cnc(CNC(=O)c5ccc6c(c5)S(=O)(=O)CCOC6)cc4n3)nc21 [Compound 190] | 7.34 | 8.57 | 6.41
O=C(NCc1cc2nc(-c3cccc(C4CC4)n3)cnc2cn1)c1ccc2c(c1)S(=O)(=O)CCOC2 [Compound 191] | 7.22 | 19.73 | 5.93
COCc1ccc(C(=O)NCc2cc3nc(-c4cccc(N5C[C@@H](C)O[C@@H](C)C5)n4)ccc3cn2)cc1S(C)(=O)=O [Compound 192] | 8.29 | 6.45 | 7.49
O=C(NCc1cc2nc(-c3cn(C4COC4)nc3C3CC3)ccc2cn1)c1ccc2c(c1)S(=O)(=O)CCOC2 [Compound 194] | 6.66 | 12.69 | 5.56
Cc1ccc(C(=O)NCc2cc3nc(-c4cccc(N5C[C@@H](C)O[C@@H](C)C5)n4)ccc3cn2)cc1S(C)(=O)=O [Compound 195] | 8.43 | 8.49 | 7.50
O=C(NCc1cc2nc(-c3cccc4c3CCN4C3COC3)ccc2cn1)c1ccc2c(c1)S(=O)(=O)CCOC2 [Compound 198] | 6.65 | 4.34 | 6.01
CO[C@@H]1CCN(c2cccc(-c3ccc4cnc(CNC(=O)c5ccc6c(c5)S(=O)(=O)CCOC6)cc4n3)n2)C1 [Compound 200] | 8.09 | 7.31 | 7.23
CO[C@H]1CCN(c2cccc(-c3ccc4cnc(CNC(=O)c5ccc6c(c5)S(=O)(=O)CCOC6)cc4n3)n2)C1 [Compound 201] | 7.71 | 9.11 | 6.75
O=C(NCc1cc2nc(-c3cccc(N4CCC(F)(F)C4)n3)ccc2cn1)c1ccc2c(c1)S(=O)(=O)CCOC2 [Compound 202] | 7.75 | 7.59 | 6.87
